Our source for the IC50 values is patent publication US20140113898A1, “BISARYLSULFONE AND DIALKYLARYLSULFONE COMPOUNDS AS CALCIUM CHANNEL BLOCKERS” (Zalicus Pharmaceuticals Ltd., priority 2010, published 2014).

SMILES strings stand for the structures.

T1 sequence (Q00975 whole entry): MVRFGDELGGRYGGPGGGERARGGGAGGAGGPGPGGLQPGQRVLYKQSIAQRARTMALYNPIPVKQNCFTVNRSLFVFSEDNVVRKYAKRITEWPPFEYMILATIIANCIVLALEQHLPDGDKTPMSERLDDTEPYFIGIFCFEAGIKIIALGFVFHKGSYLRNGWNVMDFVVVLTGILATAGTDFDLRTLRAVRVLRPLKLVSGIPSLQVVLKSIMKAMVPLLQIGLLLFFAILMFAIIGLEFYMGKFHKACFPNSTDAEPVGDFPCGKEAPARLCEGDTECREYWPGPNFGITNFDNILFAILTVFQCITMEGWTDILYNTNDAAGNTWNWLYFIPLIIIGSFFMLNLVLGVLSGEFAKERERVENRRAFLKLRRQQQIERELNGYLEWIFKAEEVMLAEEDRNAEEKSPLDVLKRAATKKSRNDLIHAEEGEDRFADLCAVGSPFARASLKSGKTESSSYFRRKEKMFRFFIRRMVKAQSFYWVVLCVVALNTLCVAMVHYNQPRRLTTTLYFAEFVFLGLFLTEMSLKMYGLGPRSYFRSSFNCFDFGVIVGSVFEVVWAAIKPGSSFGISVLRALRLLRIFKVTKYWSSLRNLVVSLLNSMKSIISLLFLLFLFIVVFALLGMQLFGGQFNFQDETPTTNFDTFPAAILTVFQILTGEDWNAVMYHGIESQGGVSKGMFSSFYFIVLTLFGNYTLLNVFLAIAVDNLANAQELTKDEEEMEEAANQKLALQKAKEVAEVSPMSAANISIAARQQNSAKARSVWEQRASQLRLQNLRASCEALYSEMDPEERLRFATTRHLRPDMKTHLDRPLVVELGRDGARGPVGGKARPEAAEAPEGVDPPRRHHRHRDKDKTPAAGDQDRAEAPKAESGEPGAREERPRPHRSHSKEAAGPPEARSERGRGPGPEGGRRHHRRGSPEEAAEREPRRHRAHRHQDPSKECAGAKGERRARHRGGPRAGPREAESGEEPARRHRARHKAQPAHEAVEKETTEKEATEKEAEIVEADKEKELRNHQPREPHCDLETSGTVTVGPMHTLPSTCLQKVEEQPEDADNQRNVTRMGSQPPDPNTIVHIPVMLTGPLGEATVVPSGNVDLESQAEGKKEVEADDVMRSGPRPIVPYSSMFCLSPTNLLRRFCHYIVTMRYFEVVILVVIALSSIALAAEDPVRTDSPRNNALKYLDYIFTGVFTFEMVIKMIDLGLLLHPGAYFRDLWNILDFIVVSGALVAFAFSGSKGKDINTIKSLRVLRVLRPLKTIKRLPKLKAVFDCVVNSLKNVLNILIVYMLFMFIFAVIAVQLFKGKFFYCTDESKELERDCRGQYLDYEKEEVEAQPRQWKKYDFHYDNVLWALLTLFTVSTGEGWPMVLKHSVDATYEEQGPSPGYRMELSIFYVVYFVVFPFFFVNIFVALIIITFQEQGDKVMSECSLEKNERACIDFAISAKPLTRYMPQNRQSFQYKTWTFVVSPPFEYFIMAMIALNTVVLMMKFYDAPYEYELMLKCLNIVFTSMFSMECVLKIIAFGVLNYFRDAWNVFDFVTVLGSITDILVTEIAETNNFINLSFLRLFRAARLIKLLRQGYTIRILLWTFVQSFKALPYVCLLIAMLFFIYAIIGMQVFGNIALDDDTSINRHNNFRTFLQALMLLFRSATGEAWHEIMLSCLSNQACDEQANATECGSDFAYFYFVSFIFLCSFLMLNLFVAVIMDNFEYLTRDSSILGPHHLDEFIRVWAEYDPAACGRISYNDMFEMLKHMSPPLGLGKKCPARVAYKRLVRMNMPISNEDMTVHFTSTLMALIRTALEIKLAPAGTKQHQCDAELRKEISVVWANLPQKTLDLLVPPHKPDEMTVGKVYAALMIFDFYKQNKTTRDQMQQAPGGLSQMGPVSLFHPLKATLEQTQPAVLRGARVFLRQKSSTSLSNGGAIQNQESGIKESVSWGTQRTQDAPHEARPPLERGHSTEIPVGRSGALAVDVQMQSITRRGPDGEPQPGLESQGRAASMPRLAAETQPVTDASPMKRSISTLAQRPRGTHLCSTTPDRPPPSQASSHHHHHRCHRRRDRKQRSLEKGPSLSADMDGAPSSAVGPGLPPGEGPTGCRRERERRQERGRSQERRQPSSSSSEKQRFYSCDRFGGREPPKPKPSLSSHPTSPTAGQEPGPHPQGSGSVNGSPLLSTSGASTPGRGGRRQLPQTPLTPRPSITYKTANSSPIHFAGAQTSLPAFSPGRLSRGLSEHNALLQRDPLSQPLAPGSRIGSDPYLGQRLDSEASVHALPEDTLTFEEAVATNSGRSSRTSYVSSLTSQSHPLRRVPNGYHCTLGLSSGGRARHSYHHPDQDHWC
T1 sequence (P54284 whole entry partner): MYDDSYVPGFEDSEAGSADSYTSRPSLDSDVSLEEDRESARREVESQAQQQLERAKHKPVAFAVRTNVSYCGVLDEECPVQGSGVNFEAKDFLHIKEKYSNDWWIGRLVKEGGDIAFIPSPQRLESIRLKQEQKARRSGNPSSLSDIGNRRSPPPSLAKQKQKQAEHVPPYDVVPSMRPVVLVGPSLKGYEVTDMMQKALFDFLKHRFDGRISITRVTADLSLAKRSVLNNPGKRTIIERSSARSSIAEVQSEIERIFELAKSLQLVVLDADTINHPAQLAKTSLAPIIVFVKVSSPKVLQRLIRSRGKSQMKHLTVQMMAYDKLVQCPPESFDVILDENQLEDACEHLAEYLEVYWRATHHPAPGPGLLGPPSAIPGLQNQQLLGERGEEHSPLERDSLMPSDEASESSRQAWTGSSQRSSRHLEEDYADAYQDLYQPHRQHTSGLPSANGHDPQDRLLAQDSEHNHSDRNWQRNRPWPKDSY
T1 sequence (P54289 25-946 partner limits assumed): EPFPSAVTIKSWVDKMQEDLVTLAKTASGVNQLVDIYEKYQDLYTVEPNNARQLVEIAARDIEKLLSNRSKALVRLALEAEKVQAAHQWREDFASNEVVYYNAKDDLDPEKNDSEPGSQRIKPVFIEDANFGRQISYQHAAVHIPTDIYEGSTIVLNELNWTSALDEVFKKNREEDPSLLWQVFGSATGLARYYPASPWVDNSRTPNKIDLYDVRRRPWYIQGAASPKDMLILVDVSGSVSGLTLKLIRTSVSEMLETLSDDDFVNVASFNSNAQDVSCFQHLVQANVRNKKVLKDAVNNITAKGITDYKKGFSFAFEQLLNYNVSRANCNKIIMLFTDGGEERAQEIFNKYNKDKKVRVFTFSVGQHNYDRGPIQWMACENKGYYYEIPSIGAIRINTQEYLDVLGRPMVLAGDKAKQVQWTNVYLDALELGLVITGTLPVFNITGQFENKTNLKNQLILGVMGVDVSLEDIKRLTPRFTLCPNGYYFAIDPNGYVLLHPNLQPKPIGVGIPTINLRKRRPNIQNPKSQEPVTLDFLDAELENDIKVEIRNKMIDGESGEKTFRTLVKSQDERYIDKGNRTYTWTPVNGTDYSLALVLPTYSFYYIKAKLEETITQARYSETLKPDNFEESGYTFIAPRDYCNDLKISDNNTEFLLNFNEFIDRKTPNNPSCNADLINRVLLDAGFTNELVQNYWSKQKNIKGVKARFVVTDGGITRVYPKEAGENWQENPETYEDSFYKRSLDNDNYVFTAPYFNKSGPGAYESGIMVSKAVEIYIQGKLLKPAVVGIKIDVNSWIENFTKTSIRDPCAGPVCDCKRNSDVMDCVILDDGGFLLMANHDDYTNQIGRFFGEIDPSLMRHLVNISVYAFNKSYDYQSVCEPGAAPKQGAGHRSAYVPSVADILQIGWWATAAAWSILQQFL
T1 sequence (P54289 947-1103 partner limits assumed): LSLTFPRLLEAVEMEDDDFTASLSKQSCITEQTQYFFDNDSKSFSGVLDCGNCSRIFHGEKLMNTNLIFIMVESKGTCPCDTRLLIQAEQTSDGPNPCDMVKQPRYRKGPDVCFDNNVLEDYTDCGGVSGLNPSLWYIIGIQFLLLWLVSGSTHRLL

The first experiment concerns the target T1, CaV2.2 (Homo sapiens, UniProt Q00975).
T1 construct: expressed in transfected cells; host or cells: unnamed doxycycline-inducible cell line
Nature of the experiment: High-throughput CaV2.2/Kir2.3 FLIPR fluorescent assay. In kind it is cell-based. The settings on record: Table 4; Fluo-4 FLIPR; closed or inactivated state not stated; read-out: FLIPR data CaV2.2. The protocol:
Cells were plated in 384-well, clear-bottom, black-walled, poly-D-lysine coated plates (Becton Dickinson, Franklin Lake, N.J.) 2 days prior to use in the FLIPR assay. 100 μL of cells (1.4×10^6 cell/mL) containing doxycyline (Sigma-Aldrich, 1.5 μg/mL; to induce channel expression) were added to each well using a Multidrop (Thermo Scientific, Waltham, Mass.) and were maintained in 5% CO2 incubator at 37° C. On the morning of the assay, cells were transferred to a 5% CO2 incubator at 29° C.
Cells were washed with a wash buffer containing (in mM): 118 NaCl, 18.4 HEPES, 11.7 D-glucose, 2 CaCl2, 0.5 MgSO4, 4.7 KCl, 1.2 KH2PO4, pH adjusted to 7.2 with NaOH. 4.4 μM of the fluorescent indicator dye, Fluo-4 (Invitrogen), prepared in pluronic acid (Sigma-Aldrich), was loaded into the wells and incubated for 45 minutes at 29° C. in 5% CO2. Cells were then rinsed with either a 2 mM KCl closed-state buffer (in mM: 138.5 NaCl, 10 HEPES, 10 D-glucose, 1 CaCl2, and 2 KCl, with the pH adjusted to 7.4 with NaOH) when performing the closed-state assay or 12.5 mM KCl inactivated-state buffer (in mM: 128 NaCl, 10 HEPES, 10 D-glucose, 1 CaCl2, and 12.5 mM KCl, with the pH adjusted to 7.4 with NaOH) when performing the inactivated-state assay.
Calcium entry was evoked with an addition of 130 mM KCl stimulation buffer (in mM: 10.5 NaCl, 10 HEPES, 10 D-glucose, 1 CaCl2, and 130 KCl, with the pH adjusted to 7.4 with NaOH) for both the closed-state or inactivated-state assay. A change in the Fluo-4 fluorescence signal was assessed using FLIPR^TETRA™ instrument (Molecular Devices, Sunnyvale, Calif.) for 3 minutes following the elevation of extracellular KCl using an illumination wavelength of 470-495 nm with emissions recorded at 515-575 nm.
Concentration-dependent response curves were obtained by comparing the fluorescence signal in the presence of compound and fitted with a logistic function (1) to obtain the concentration that inhibited 50% (IC50) of the RLU signal using OriginPro v.7.5 software (OriginLab, Northampton, Mass.).
To assess the quality of the FLIPR assays the Z-factor (2) was used to quantify the suitability of the assay conditions using the following equation: […]
Data are expressed as mean and standard deviation (SD).
For `O=C(NCc1ccccc1S(=O)(=O)c1cccc(C(F)(F)F)c1)[C@@H]1C[C@@H](F)CN1` [Compound 69, (2S,4R)-4-fluoro-N-(2-((3-(trifluoromethyl)phenyl)sulfonyl)benzyl)pyrrolidine-2-carboxamide], the IC50 was found to be 9140 nM.

Regarding `O=C(NCc1ccccc1S(=O)(=O)c1cccc(C(F)(F)F)c1)c1ccc(C(F)(F)F)nc1` [Compound 38], the IC50 came out at 1120 nM. With `CC1(C(=O)NCc2ccc(S(=O)(=O)c3cccc(C(F)(F)F)c3)cc2)CCCCN1` (centres unmarked) [Compound 85, 2-methyl-N-(4-((3-(trifluoromethyl)phenyl)sulfonyl)benzyl)piperidine-2-carboxamide], the IC50 stood at 1940 nM. Same read-out and setting: the value for `O=C(NCc1cc(S(=O)(=O)c2cccc(C(F)(F)F)c2)ccn1)c1ccnc(C(F)(F)F)n1` [Compound 113, 2-(trifluoromethyl)-N-((4-((3-(trifluoromethyl)phenyl)sulfonyl)pyridin-2-yl)methyl)pyrimidine-4-carboxamide] was 1390 nM; that for `O=C(NCc1ccc(S(=O)(=O)c2cccc(C(F)(F)F)c2)cn1)c1ccnc(C(F)(F)F)c1` [Compound 102, 2-(trifluoromethyl)-N-((5-((3-(trifluoromethyl)phenyl)sulfonyl)pyridin-2-yl)methyl)isonicotinamide] was 1410 nM. On the same count and under the same terms, the value for `CS(=O)(=O)c1nc(C(F)(F)F)ccc1C(=O)NCc1ccc(S(=O)(=O)c2cccc(C(F)(F)F)c2)cn1` [Compound 92, 2-(methylsulfonyl)-6-(trifluoromethyl)-N-((5-((3-(trifluoromethyl)phenyl)sulfonyl)pyridin-2-yl)methyl)nicotinamide] was 2330 nM.

The same experiment, now with this note: Table 5; Fluo-4 FLIPR; closed or inactivated state not stated; read-out: FLIPR data CaV2.2.
With `COc1cc(CCNC(=O)CC(C)(C)S(=O)(=O)c2cccc(C(F)(F)F)c2)ccc1O` [Compound 153, N-(4-hydroxy-3-methoxyphenetnyl)-3-methyl-3-((3-(trifluoromethyl)phenyl)sulfonyl)butanamide], the IC50 turned out to be 1220 nM. Still for that read-out and setting: the result for `CC(C)(CCNC(=O)c1ccc(C(F)(F)F)cc1S(C)(=O)=O)S(=O)(=O)c1cc(F)cc(C(F)(F)F)c1` [Compound 213, N-(3-((3-fluoro-5-(trifluoromethyl)phenyl)sulfonyl)-3-methylbutyl)-2-(methylsulfonyl)-4-(trifluoromethyl)benzamide] reads 1120 nM. On to `CC(C)(NC(=O)C(C)(C)S(=O)(=O)c1cccc(C(F)(F)F)c1)c1ccccc1` [Compound 126, 2-methyl-N-(2-phenylpropan-2-yl)-2-((3-(trifluoromethyl)phenyl)sulfonyl)propanamide], for which the IC50 amounted to 4310 nM.

`CC(C)(CC(=O)NCCC(F)(F)F)S(=O)(=O)c1cccc(C(F)(F)F)c1` [Compound 151, 3-methyl-3-((3-(trifluoromethyl)phenyl)sulfonyl)-N-(3,3,3-trifluoropropyl)butanamide]: the IC50 stood at 8230 nM. Consider `CC(C)(CNC(=O)c1cnc(C(F)(F)F)nc1)S(=O)(=O)c1cccc(C(F)(F)F)c1` [Compound 164, N-(2-methyl-2-((3-(trifluoromethyl)phenyl)sulfonyl)propyl)-2-(trifluoromethyl)pyrimidine-5-carboxamide], for which the IC50 came to 4660 nM.

As to `CC(C)(CCNC(=O)[C@H]1CCCN1)S(=O)(=O)c1cccc(C(F)(F)F)c1` [Compound 220, (R)-N-(3-methyl-3-((3-(trifluoromethyl)phenyl)sulfonyl)butyl)pyrrolidine-2-carboxamide], the IC50 was found to be 3430 nM. Consider `CC(C)(CNC(=O)c1ccnc(C(F)(F)F)c1)S(=O)(=O)c1cccc(C(F)(F)F)c1` [Compound 179, N-(2-methyl-2-((3-(trifluoromethyl)phenyl)sulfonyl)propyl)-2-(trifluoromethyl)isonicotinamide], for which the IC50 was determined as 1240 nM.

On to `Cc1c(C(=O)NCCC(C)(C)S(=O)(=O)c2cccc(C(F)(F)F)c2)sc2nc[nH]c(=O)c12` [Compound 210, 5-methyl-N-(3-methyl-3-((3-(trifluoromethyl)phenyl)sulfonyl)butyl)-4-oxo-3,4-dihydrothieno[2,3-d]pyrimidine-6-carboxamide], for which the IC50 amounted to 3320 nM.
